In publication PMC10770148, “Transport and inhibition mechanism for VMAT2-mediated synaptic vesicle loading of monoamines” (Cell Research, 2024):
Read-outs that look alike come from different tables or passages of the source.

Experiments:
VMAT2 Y433F = target: T1, VMAT2 Y433F (Homo sapiens, UniProt Q05940, Y433F); assay: MST binding to VMAT2 Y433F mutant; settings: Y433F variant, mean ± SEM
T1 construct: The eGFP-tagged full-length VMAT2 or VMAT2 mutants was purified by size exclusion chromatography; made in house; host or cells: Expi293 cells
Experimental: (§1) The eGFP-tagged full-length VMAT2 or VMAT2 mutants was purified by size exclusion chromatography in the assay buffer (50 mM HEPES, 150 mM NaCl, 0.01% DDM, 0.001% CHS, pH 7.4) as described but without cleavage. Peak fractions were pooled and diluted to 40 nM. […] For MST measurements, a series of 16 sequential 1:1 dilutions were prepared using assay buffer for each ligand, and each ligand dilution was mixed 1:1 with diluted protein to final protein concentration of 20 nM and final ligand concentrations in the μM to nM range. The samples were incubated for 10 min at room temperature, and then loaded into Standard Monolith Capillaries (Cat# MO-K022, NanoTemper Technologies). Measurements were carried out with a Monolith NT.115 device at 80% LED power and 40% MST power. Kd was determined using the MO. Affinity Analysis software (version 2.3, NanoTemper Technologies, Germany) is with the Kd fit function. Capillaries displaying aggregation or adsorption were excluded. Data of at least three independently pipetted measurements were analyzed and Kd is expressed as mean ± SEM. Binding curves were plotted by GraphPad Prism Prism 9.5.1 (GraphPad Software Inc., San Diego, USA).

VMAT2_WT = VMAT2_WT (Homo sapiens, UniProt Q05940); assay: MST binding to WT VMAT2
Experimental: as §1

VMAT2 and VMAT1 = test system: VMAT2 and VMAT1; parameters: method as in PMID 8643547; settings: cited from earlier work
[1] = target: T2, VMAT2 Leu124 and Leu125 mutant (Homo sapiens, UniProt Q05940, L124R/L125R); assay: MST binding to VMAT2 Leu124/Leu125 mutant; settings: MST (Fig. S9a), versus WT
T2 construct: The eGFP-tagged full-length VMAT2 or VMAT2 mutants was purified by size exclusion chromatography; made in house; host or cells: Expi293 cells
Experimental: as §1

VMAT1_WT = target: T3, VMAT1_WT (Homo sapiens, UniProt P54219); assay: MST binding to WT VMAT1
T3 sequence (P54219 1-525): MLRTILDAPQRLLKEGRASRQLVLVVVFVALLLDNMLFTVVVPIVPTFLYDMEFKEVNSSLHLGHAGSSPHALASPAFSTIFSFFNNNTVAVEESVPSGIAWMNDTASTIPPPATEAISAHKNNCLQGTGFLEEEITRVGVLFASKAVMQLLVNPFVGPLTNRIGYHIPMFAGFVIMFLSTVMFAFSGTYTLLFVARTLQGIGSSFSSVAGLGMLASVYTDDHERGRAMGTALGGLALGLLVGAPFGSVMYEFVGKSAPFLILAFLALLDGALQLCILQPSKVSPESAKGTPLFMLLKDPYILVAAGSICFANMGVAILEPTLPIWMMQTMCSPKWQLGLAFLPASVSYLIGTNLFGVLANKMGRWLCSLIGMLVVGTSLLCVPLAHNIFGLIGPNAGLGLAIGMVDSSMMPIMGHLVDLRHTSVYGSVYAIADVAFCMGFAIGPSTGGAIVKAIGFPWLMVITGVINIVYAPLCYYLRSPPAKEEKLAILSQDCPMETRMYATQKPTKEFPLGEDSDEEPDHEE

VMAT2 = test system: VMAT2; parameters: method as in PMID 23506877; settings: cited from earlier work
VMAT2 E312A = assay: MST binding to VMAT2 E312A mutant; parameters: species or system human; settings: E312A versus WT, MST (Fig. S9a)
Experimental: as §1

VMAT2 N34A = assay: MST binding to VMAT2 N34A mutant; parameters: species or system human; settings: N34A versus WT
Experimental: as §1

VMAT2 W318A = target: T4, VMAT2 W318A (Homo sapiens, UniProt Q05940, W318A); assay: MST binding to VMAT2 W318A mutant; settings: MST (Fig. S9a), versus WT
T4 construct: The eGFP-tagged full-length VMAT2 or VMAT2 mutants was purified by size exclusion chromatography; made in house; host or cells: Expi293 cells
Experimental: as §1

VMAT2 I308V = target: T5, VMAT2 I308V (Homo sapiens, UniProt Q05940, I308V); assay: MST binding to VMAT2 I308V mutant; settings: I308V variant, mean ± SEM
T5 construct: The eGFP-tagged full-length VMAT2 or VMAT2 mutants was purified by size exclusion chromatography; made in house; host or cells: Expi293 cells
Experimental: as §1

VMAT2 V232L = target: T6, VMAT2 V232L (Homo sapiens, UniProt Q05940, V232L); assay: MST binding to VMAT2 V232L mutant; settings: V232L variant, mean ± SEM
T6 construct: The eGFP-tagged full-length VMAT2 or VMAT2 mutants was purified by size exclusion chromatography; made in house; host or cells: Expi293 cells
Experimental: as §1

VMAT2 L37F = target: T7, VMAT2 L37F (Homo sapiens, UniProt Q05940, L37F); assay: MST binding to VMAT2 L37F mutant
T7 construct: The eGFP-tagged full-length VMAT2 or VMAT2 mutants was purified by size exclusion chromatography; made in house; host or cells: Expi293 cells
Experimental: as §1

VMAT1 = test system: VMAT1; parameters: method as in PMID 23506877; settings: cited from earlier work

T7 sequence (Q05940 whole entry L37F): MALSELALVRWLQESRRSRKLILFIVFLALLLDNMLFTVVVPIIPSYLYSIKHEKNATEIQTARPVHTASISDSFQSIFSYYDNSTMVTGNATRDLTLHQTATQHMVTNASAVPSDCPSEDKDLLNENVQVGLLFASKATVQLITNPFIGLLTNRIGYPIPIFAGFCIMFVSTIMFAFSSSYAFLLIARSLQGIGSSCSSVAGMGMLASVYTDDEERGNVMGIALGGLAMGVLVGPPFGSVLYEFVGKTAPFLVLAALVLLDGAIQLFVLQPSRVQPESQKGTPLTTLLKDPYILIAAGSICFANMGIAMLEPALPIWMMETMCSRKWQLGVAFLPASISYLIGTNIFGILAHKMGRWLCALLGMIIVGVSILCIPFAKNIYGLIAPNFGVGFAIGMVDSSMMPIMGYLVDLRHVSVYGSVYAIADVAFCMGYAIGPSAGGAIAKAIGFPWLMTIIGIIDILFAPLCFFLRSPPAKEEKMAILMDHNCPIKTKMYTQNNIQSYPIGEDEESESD
VMAT2_WT, sequence (Q05940 whole entry): as the sequence (Q05940 whole entry L37F) above, with F37L counted along it
T1 sequence (Q05940 whole entry Y433F): as the sequence (Q05940 whole entry L37F) above, with F37L, Y433F counted along it
T4 sequence (Q05940 whole entry W318A): as the sequence (Q05940 whole entry L37F) above, with F37L, W318A counted along it
T2 sequence (Q05940 whole entry L124R/L125R): as the sequence (Q05940 whole entry L37F) above, with F37L, L124R, L125R counted along it
T5 sequence (Q05940 whole entry I308V): as the sequence (Q05940 whole entry L37F) above, with F37L, I308V counted along it
T6 sequence (Q05940 whole entry V232L): as the sequence (Q05940 whole entry L37F) above, with F37L, V232L counted along it

SMILES: NCCc1c[nH]c2ccc(O)cc12 [5-HT, serotonin]
- Kd (VMAT2 Y433F): 3440 ± 1130 nM
- Kd (VMAT2_WT): 3300 ± 1010 nM

SMILES: COC(=O)[C@H]1[C@H]2C[C@@H]3c4[nH]c5cc(OC)ccc5c4CCN3C[C@H]2C[C@@H](OC(=O)c2cc(OC)c(OC)c(OC)c2)[C@@H]1OC [RES, reserpine]
- affinity or preference VMAT2 versus VMAT1 (VMAT2 and VMAT1): slight preference for VMAT2 over VMAT1

SMILES: COc1cc2c(cc1OC)C1CC(=O)C(CC(C)C)CN1CC2 (stereo not drawn) [TBZ, tetrabenazine]
- TBZ association, Leu124 and Leu125 perturbations [1]: largely diminished TBZ association
- difference in affinity between VMAT2 and VMAT1 (VMAT1_WT; 60 nM vs 9.38 μM): ~150 fold
- Kd (VMAT1_WT; VMAT1 WT, mean ± SEM): 9380 nM
- Kd (VMAT2 Y433F): 437 ± 141 nM
- decrease in TBZ binding affinity, E312A mutant (VMAT2 E312A): 8 fold
- reduction in TBZ binding affinity, N34A substitution (VMAT2 N34A): 7 fold
- TBZ binding, W318A mutant (VMAT2 W318A): substantial reduction in TBZ binding
- Kd (VMAT2 I308V): 168 ± 103 nM
- Kd (VMAT2 V232L): 22900 ± 20000 nM
- reduction of TBZ binding by L37F variant (VMAT2 L37F; L37F versus WT VMAT2, MST): 45 fold
- Kd (VMAT2 L37F; MST, L37F variant, mean ± SEM): 2780 ± 1080 nM
- Kd (VMAT2_WT; MST, VMAT2 WT, mean ± SEM, n = 3–4, read-out: Kd): 60 nM
- IC50 difference VMAT2 versus VMAT1 (VMAT1; 0.3 μM vs 3 μM): 10 fold
- IC50 (VMAT1; VMAT1): 3000 nM
- affinity or preference VMAT2 versus VMAT1 (VMAT2 and VMAT1): selectively target VMAT2

SMILES: NCCc1c[nH]cn1 [histamine]
- higher affinity of VMAT2 than VMAT1 (VMAT2 and VMAT1; substrates): 30 fold

SMILES: O=C(c1ccc(F)cc1)C1CCN(CCn2c(=O)[nH]c3ccccc3c2=O)CC1 [ketanserin]
- affinity or preference VMAT2 versus VMAT1 (VMAT2 and VMAT1): slight preference for VMAT2 over VMAT1
